Activity calls are given as the source filed them. The rule behind the calls is not given here.
Key:
[1] = Metabolic stability in human liver microsomes assessed as compound turnover after 40 mins; type: ADME, Microsome; conditions: read-out: Drug metabolism
[2] = target: T1, Serine/threonine-protein kinase TBK1 (Homo sapiens, UniProt Q9UHD2); experiment: Inhibition of TBK1 by radiometry
T1 sequence (Q9UHD2 whole entry): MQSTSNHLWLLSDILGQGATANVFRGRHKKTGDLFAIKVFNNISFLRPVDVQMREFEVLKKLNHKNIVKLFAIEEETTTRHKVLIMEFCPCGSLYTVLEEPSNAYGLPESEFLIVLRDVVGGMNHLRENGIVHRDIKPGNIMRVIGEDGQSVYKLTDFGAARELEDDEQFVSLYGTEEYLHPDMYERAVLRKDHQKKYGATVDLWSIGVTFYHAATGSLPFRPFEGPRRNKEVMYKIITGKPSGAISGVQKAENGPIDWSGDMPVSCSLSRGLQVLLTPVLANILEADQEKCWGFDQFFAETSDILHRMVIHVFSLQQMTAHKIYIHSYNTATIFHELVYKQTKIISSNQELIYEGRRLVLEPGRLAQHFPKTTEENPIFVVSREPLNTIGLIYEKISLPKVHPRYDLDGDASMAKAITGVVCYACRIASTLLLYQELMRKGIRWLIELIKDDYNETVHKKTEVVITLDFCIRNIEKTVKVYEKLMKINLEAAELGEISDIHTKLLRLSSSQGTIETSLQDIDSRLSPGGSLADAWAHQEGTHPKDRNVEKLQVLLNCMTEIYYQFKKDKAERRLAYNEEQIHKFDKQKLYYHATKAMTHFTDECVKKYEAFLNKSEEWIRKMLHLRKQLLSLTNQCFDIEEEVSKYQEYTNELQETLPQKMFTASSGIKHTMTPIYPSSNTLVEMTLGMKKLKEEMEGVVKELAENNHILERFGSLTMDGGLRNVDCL

[3] = target: MAP kinase-interacting serine/threonine-protein kinase 1 (Homo sapiens, UniProt Q9BUB5); experiment: Inhibition of MNK1
[4] = target: T2, Serine/threonine-protein kinase TBK1 (Mus musculus, UniProt Q9WUN2); experiment: Inhibition of TBK1-mediated RANTES release in LPS-stimulated mouse RAW264.7 cells compound incubated for 30 mins prior LPS challenge measured after 6 hrs by ELISA; type: cell-based; conditions: read-out: IC50
T2 sequence (Q9WUN2 whole entry): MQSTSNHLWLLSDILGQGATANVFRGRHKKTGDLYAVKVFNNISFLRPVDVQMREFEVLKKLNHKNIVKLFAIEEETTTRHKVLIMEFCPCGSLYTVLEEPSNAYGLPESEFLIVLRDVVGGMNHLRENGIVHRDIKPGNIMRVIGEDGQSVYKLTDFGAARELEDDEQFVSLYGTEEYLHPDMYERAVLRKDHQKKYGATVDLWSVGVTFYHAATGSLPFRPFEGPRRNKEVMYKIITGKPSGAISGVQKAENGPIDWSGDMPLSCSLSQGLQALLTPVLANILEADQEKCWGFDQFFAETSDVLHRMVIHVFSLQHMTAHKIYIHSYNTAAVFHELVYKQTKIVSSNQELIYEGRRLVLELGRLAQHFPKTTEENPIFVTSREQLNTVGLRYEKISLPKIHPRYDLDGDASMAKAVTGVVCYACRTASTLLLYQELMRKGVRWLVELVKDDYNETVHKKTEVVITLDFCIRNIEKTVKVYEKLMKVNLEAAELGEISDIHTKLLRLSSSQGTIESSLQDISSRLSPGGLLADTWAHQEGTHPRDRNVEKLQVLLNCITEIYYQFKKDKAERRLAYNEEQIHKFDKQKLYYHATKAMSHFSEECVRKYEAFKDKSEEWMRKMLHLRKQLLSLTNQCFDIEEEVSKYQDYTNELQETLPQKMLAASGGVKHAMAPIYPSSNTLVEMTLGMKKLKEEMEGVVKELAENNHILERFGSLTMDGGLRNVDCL

[5] = Inhibition of VEGFR
[6] = target: MAP/microtubule affinity-regulating kinase 3 (Homo sapiens, UniProt P27448); experiment: Inhibition of MARK3
[7] = Efflux ratio of permeability from basolateral to apical side to apical to basolateral side in human Caco2 cells; type: ADME, cell-based; conditions: Caco-2
[8] = target: Cyclin-dependent kinase 2 (Homo sapiens, UniProt P24941); experiment: Inhibition of CDK2
[9] = Permeability from apical to basolateral side of human Caco2 cells; type: ADME, cell-based; conditions: Caco-2, read-out: permeability
[10] = Metabolic stability in mouse liver microsomes assessed as compound turnover after 30 mins; type: ADME, Microsome; conditions: read-out: Drug metabolism
[11] = target: T3, Inhibitor of nuclear factor kappa-B kinase subunit epsilon (Homo sapiens, UniProt Q14164); experiment: Inhibition of IKKepsilon
T3 sequence (Q14164 whole entry): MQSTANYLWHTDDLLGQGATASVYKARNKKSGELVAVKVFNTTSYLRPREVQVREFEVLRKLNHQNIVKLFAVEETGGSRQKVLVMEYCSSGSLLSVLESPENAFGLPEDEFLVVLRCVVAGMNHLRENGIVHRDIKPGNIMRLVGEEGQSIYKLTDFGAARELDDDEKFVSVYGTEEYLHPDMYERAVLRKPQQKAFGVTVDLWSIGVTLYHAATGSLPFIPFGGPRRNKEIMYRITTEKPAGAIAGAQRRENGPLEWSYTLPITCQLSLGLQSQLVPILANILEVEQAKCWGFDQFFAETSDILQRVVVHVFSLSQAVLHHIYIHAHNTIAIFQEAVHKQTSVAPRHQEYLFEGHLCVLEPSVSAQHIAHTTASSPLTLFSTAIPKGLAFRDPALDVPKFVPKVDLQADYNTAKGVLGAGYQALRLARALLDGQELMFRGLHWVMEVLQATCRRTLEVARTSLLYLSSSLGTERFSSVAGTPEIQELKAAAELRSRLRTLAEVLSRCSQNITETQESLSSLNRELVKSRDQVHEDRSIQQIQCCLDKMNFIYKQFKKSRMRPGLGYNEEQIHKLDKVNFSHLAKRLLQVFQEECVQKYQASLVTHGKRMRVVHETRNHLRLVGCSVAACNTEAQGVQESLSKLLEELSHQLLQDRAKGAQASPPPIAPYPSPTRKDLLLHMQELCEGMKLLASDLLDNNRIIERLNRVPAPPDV

[12] = target: Aurora kinase B (Homo sapiens, UniProt Q96GD4); experiment: Inhibition of Aurora B
[13] = target: T4, Serine/threonine-protein kinase BRSK2 (Homo sapiens, UniProt Q8IWQ3); experiment: Inhibition of BRSK2
T4 sequence (Q8IWQ3 whole entry): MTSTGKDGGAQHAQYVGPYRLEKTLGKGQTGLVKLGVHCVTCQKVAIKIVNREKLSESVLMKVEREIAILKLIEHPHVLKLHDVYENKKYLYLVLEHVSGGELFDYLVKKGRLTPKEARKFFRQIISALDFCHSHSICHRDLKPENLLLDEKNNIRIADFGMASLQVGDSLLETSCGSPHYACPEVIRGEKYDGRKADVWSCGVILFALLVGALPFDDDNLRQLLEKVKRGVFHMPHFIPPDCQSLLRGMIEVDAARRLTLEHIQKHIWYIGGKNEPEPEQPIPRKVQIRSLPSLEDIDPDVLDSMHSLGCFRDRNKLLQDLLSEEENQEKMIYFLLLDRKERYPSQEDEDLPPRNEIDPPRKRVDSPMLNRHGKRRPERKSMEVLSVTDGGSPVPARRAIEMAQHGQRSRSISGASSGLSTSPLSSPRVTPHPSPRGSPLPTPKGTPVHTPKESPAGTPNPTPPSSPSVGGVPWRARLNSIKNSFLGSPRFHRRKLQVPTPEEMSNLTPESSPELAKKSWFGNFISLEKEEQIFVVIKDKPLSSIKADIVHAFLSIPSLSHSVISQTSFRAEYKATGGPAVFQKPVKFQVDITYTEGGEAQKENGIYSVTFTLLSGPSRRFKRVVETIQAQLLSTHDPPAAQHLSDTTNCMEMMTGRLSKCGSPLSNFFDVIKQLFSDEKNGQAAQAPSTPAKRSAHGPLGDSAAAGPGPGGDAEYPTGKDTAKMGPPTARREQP

[14] = Inhibition of AMPK
[15] = tested on: Mus musculus; experiment: Antiinflammatory activity in mouse assessed as inhibition of LPS-induced IFN-beta production at 15 mg/kg, ip administered 30 mins prior LPS challenge measured 1 hr post challenge by ELISA; type: functional, organism-based; design: dose 15 mg/kg
[16] = Clearance in CD-1 mouse at 1 mg/kg, iv; type: ADME, organism-based; design: dose 1 mg/kg, route intravenous; conditions: in vivo
[17] = Half life in CD-1 mouse at 1 mg/kg, iv; type: ADME, organism-based; design: dose 1 mg/kg, route intravenous; conditions: in vivo
[18] = Half life in CD-1 mouse at 5 mg/kg, po; type: ADME, organism-based; design: dose 5 mg/kg, route oral; conditions: in vivo
[19] = Volume of distribution in CD-1 mouse at 1 mg/kg, iv; type: ADME, organism-based; design: dose 1 mg/kg, route intravenous; conditions: in vivo
[20] = tested on: Mus musculus; experiment: Toxicity in mouse at >= 20 mg/kg, ip; type: organism-based; design: dose 20 mg/kg, route intraperitoneal; conditions: in vivo
[21] = Oral bioavailability in CD-1 mouse at 5 mg/kg; type: ADME, organism-based; conditions: in vivo

Aurora kinase B, sequence (Q96GD4 whole entry): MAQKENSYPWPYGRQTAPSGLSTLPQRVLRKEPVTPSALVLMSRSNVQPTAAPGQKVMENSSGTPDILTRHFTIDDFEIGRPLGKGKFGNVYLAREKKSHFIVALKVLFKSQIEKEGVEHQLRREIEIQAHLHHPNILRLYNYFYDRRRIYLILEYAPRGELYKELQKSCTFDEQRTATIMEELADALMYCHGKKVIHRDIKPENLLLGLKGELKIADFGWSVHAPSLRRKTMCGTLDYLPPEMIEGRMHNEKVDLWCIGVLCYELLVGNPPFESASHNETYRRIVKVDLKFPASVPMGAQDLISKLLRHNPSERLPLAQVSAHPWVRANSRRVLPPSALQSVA
MAP/microtubule affinity-regulating kinase 3, sequence (P27448 whole entry): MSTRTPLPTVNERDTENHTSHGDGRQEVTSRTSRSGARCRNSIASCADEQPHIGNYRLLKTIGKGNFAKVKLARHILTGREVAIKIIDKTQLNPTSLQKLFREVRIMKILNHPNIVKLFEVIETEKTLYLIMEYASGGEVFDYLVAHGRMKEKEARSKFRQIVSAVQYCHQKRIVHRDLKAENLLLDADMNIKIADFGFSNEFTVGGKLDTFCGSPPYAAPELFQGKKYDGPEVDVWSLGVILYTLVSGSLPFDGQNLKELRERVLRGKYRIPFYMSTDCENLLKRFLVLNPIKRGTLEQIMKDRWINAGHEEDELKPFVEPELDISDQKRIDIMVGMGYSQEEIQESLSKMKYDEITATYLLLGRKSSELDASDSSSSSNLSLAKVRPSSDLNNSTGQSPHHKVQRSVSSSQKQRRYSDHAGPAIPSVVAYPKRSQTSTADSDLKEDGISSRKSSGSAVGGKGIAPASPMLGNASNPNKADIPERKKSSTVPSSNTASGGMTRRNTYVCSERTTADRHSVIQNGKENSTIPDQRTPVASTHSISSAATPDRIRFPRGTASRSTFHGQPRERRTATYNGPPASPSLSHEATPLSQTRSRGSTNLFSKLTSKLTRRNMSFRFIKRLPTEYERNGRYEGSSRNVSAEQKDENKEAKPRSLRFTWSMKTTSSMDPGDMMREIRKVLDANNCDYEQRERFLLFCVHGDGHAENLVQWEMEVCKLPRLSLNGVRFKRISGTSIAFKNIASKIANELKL
MAP kinase-interacting serine/threonine-protein kinase 1, sequence (Q9BUB5 whole entry): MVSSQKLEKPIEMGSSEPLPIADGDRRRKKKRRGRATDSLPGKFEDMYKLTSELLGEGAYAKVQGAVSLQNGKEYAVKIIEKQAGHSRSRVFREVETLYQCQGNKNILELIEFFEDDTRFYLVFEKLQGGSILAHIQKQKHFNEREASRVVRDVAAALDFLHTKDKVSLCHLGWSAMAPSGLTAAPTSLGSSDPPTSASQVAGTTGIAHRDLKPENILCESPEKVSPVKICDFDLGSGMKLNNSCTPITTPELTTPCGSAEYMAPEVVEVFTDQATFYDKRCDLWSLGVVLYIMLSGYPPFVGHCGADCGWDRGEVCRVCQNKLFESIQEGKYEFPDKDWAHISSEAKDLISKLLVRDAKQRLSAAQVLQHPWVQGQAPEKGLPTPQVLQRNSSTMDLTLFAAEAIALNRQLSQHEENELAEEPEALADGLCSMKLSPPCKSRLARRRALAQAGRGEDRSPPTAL

SMILES	metabolised at 40 min [1]	IC50 [2]	IC50 [3]	IC50 [4]	IC50 [5]	IC50 [6]	efflux ratio [7]	IC50 [8]	Papp A→B [9]	metabolised at 0.5 h [10]	IC50 [11]	IC50 [12]	IC50 [13]	IC50 [14]	also measured
O=C(NCCCNc1nc(Nc2ccc(N3CCOCC3)cc2)ncc1C1CC1)C1CCC1	18%	0.006 µM	19 µM	0.058 µM	3.6 µM	0.012 µM	1	0.63 µM	340 nm/s	53%	0.03 µM	0.7 µM	1.9 µM	0.55 µM	–
Cn1cc(Nc2ncc(C3CC3)c(NCCCNC(=O)C3CCC3)n2)cn1	0%	0.008 µM	20 µM	0.17 µM	1.4 µM	0.02 µM	8	0.11 µM	74 nm/s	21%	0.1 µM	0.19 µM	3.7 µM	1.8 µM	inhibition [15]: Active; clearance [16]: 4.74 L/h/kg; half-life [17]: 27 min; half-life [18]: 75 min; Vd [19]: 1.79 L/kg; Activity [20]: Toxic; bioavailability [21]: 25%

Source: ChEMBL document CHEMBL2203069, “Synthesis and structure-activity relationships of a novel series of pyrimidines as potent inhibitors of TBK1/IKKε kinases” (Bioorg Med Chem Lett, 2012)
